For this experiment, the system named is Vγ9Vδ2 T cells. Description: Production of IFN-γ, TNF and GM-CSF, ELISA of culture supernatants. The format is cell-based, human. As for the experimental part: Supernatants of the culture solutions having various conditions under which Vγ9Vδ2 T cells were cultured were assayed by ELISA so that the production of cytokines (e.g., IFN-γ, TNF, GM-CSF) was measured.
The Vγ9Vδ2 T cells were restimulated both in the presence of IL-18 and in the absence of IL-18. After 24 hours, a supernatant of the culture solution containing IL-18 and a supernatant of the culture solution devoid of IL-18 were compared. In this case also, the result obtained was similar to the above.
In general terms: ELISA stands for enzyme-linked immunosorbent assay.

[1] abbreviates: purified activated Vγ9Vδ2 T cells restimulated, 24 hours.

Here are results for one substance from patent US7749760B2, “Vγ9Vδ2 T cell proliferation agent, method for producing activated Vγ9Vδ2 T cells, and uses thereof” (Hyogo College of Medicine, priority 2008, dated 2010).

As to “IL-18: interleukin 18, cytokine, IFN-γ inducing factor, obtained from GlaxoSmithKline K.K.”, the “production of GM-CSF, supernatant supplemented with IL-18 versus without” value (data not shown) is “about 10 times”. Under setting [1], the “production of IFN-γ, presence versus absence of IL-18” value was “far larger production” and the “production of TNFα, presence versus absence of IL-18” value is reported as “far larger production”.
